This passage reports Ki results from patent publication US9328106B2, “Cyclic ether pyrazol-4-yl-heterocyclyl-carboxamide compounds and methods of use” (Genentech, Inc., priority 2012, dated 2016).

Chain of PIM1 (P11309 whole entry): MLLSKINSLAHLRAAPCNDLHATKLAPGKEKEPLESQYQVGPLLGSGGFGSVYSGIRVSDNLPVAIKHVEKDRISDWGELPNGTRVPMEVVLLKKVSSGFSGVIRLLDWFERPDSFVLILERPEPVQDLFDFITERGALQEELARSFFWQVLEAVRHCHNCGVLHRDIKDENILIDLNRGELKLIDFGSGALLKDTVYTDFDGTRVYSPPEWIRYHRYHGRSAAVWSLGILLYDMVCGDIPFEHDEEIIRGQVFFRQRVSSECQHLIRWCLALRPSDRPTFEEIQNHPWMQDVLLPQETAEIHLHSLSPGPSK

The test has as its target PIM1 (Homo sapiens (Human), UniProt P11309). Kind of test: biochemical. The test is classed as biochemical. Conditions: 20 pM PIM1, 1 μM FAM-peptide, 10 μM ATP, 90 minutes at room temperature; read-out: PIM1 LC3K (KI).
Method: Reaction Buffer contained 10 mM HEPES, pH 7.2, 10 mM MgCl2, 0.01% Tween 20, 2 mM DTT. Termination Buffer contained 190 mM HEPES, pH 7.2, 0.015% Brij-35, 0.2% Coating Reagent 3 (Caliper Life Sciences, Hopkinton, Mass.), 20 mM EDTA. Separation Buffer contained 100 mM HEPES, pH 7.2, 0.015% Brij-35, 0.1% Coating Reagent 3, 1:200 Coating Reagent 8 (Caliper Life Sciences, Hopkinton, Mass.), 10 mM EDTA and 5% DMSO.
PIM reactions were carried out in a final volume of 10 μL per well in a 384-well plate. […] After 90 minutes of incubation at room temperature, the phosphorylation reaction was stopped by the addition of 10 μL Termination Buffer. The product and substrate in each independent reaction were separated on a 12-sipper microfluidic chip (Caliper Life Sciences, Hopkinton, Mass.) run on a Caliper LC3000® (Caliper Life Sciences, Hopkinton, Mass.). The separation of product and substrate was optimized by choosing voltages and pressure using Caliper's Optimizer software (Hopkinton, Mass.). The separation conditions used a downstream voltage of −500V, an upstream voltage of −2150V, and a screening pressure of −1.2 psi. […] Substrate conversion was calculated from the electropherogram using HTS Well Analyzer software (Caliper Life Sciences, Hopkinton, Mass.). Ki values for the test compound were calculated.
On to `Cn1ncc(NC(=O)c2csc(-c3c(F)cccc3CO)n2)c1[C@@H]1CC[C@@H](N)[C@H](F)CO1` [Example 382, N-[5-[(2S,5R,6S)-5-amino-6-fluoro-oxepan-2-yl]-1-methyl-pyrazol-4-yl]-2-[2-fluoro-6-(hydroxymethyl)phenyl]thiazole-4-carboxamide], for which the Ki was found to be 7.2 nM. For `Cn1ncc(NC(=O)c2csc(-c3ccccc3C(F)F)n2)c1[C@@H]1CC[C@@H](N)[C@H](F)CO1` [Example 298, N-(5-((2S,5R,6S)-5-amino-6-fluorooxepan-2-yl)-1-methyl-1H-pyrazol-4-yl)-2-(2-(difluoromethyl)phenyl)thiazole-4-carboxamide], the Ki turned out to be 0.783 nM.

For `Cn1ncc(NC(=O)c2nc(-c3c(F)cccc3F)sc2N)c1[C@H]1CC[C@H](N)C(F)(F)CO1` [Example 169, 5-Amino-N-[5-[(2R,5S)-5-amino-6,6-difluoro-oxepan-2-yl]-1-methyl-pyrazol-4-yl]-2-(2,6-difluorophenyl)thiazole-4-carboxamide], the Ki was determined as 0.341 nM.

As for `Cn1ncc(NC(=O)c2nc(C3CCCC3)sc2N)c1[C@@H]1CC[C@@H](N)[C@@H](F)CO1` [Example 272, 5-amino-N-(5-((2S,5R,6R)-5-amino-6-fluorooxepan-2-yl)-1-methyl-1H-pyrazol-4-yl)-2-cyclopentylthiazole-4-carboxamide], the Ki was determined as 0.992 nM.

Regarding `Cc1ccc(F)c(-c2nc(C(=O)Nc3cnn(C)c3[C@@H]3CC[C@@H](N)[C@H](F)CO3)cs2)c1F` [Example 303, N-(5-((2S,5R,6S)-5-amino-6-fluorooxepan-2-yl)-1-methyl-1H-pyrazol-4-yl)-2-(2,6-difluoro-3-methylphenyl)thiazole-4-carboxamide], the Ki came out at 0.013 nM. Turning to `Cc1cccnc1-c1nc(C(=O)Nc2cnn(C)c2[C@@H]2CC[C@@H](N)[C@H](F)CO2)cs1` [Example 231, N-(5-((2S,5R,6S)-5-amino-6-fluorooxepan-2-yl)-1-methyl-1H-pyrazol-4-yl)-2-(3-methylpyridin-2-yl)thiazole-4-carboxamide], the Ki stood at 0.045 nM. Next, `Cn1ncc(NC(=O)c2csc(-c3ccc[nH]c3=O)n2)c1[C@@H]1CC[C@@H](N)[C@H](F)CO1` [Example 233, N-(5-((2S,5R,6S)-5-amino-6-fluorooxepan-2-yl)-1-methyl-1H-pyrazol-4-yl)-2-(2-oxo-1,2-dihydropyridin-3-yl)thiazole-4-carboxamide]: 0.103 nM; `COC1(c2cc(F)c(-c3nc(C(=O)Nc4cnn(C)c4[C@@H]4CC[C@@H](N)[C@H](F)CO4)ccc3F)c(F)c2)COC1` [Example 202, N-(5-((2S,5R,6S)-5-amino-6-fluorooxepan-2-yl)-1-methyl-1H-pyrazol-4-yl)-6-(2,6-difluoro-4-(3-methoxyoxetan-3-yl)phenyl)-5-fluoropicolinamide]: 0.056 nM; `COc1ccc(-c2nc(C(=O)Nc3cnn(C)c3[C@@H]3CC[C@@H](N)[C@@H](F)CO3)cs2)c(F)c1` [Example 287, N-(5-((2S,5R,6R)-5-amino-6-fluorooxepan-2-yl)-1-methyl-1H-pyrazol-4-yl)-2-(2-fluoro-4-methoxyphenyl)thiazole-4-carboxamide]: 0.053 nM. As to `Cn1ncc(NC(=O)c2nc(-c3c(F)cccc3F)sc2N)c1[C@]12CC[C@H](O1)[C@@H](O)CC2` [Example 106, 5-amino-2-(2,6-difluorophenyl)-N-(5-((1S,4S,5S)-4-hydroxy-8-oxabicyclo[3.2.1]octan-1-yl)-1-methyl-1H-pyrazol-4-yl)thiazole-4-carboxamide], the Ki stood at 0.032 nM. For `CN(C)C(=O)c1ccc(F)c(-c2nc(C(=O)Nc3cnn(C)c3[C@@H]3CC[C@@H](N)[C@H](F)CO3)cs2)c1F` [Example 376, N-[5-[(2S,5R,6S)-5-amino-6-fluoro-oxepan-2-yl]-1-methyl-pyrazol-4-yl]-2-[3-(dimethylcarbamoyl)-2,6-difluoro-phenyl]thiazole-4-carboxamide], the Ki came to 0.727 nM. For the molecule `Cn1ncc(NC(=O)c2ccc(F)c(-c3c(F)cc(O)cc3F)n2)c1[C@@H]1CC[C@@H](N)[C@H](F)CO1` [Example 208, N-(5-((2S,5R,6S)-5-amino-6-fluorooxepan-2-yl)-1-methyl-1H-pyrazol-4-yl)-6-(2,6-difluoro-4-hydroxyphenyl)-5-fluoropicolinamide], the Ki turned out to be 0.012 nM. Regarding `Cn1ncc(NC(=O)c2csc(-c3c(F)ccc4[nH]ccc34)n2)c1[C@@H]1CC[C@@H](N)[C@H](F)CO1` [Example 400, N-[5-[(2S,5R,6S)-5-amino-6-fluoro-oxepan-2-yl]-1-methyl-pyrazol-4-yl]-2-(5-fluoro-1H-indol-4-yl)thiazole-4-carboxamide], the Ki came out at 0.011 nM. `Cn1ncc(NC(=O)c2nc(-c3cccc(F)c3C(F)(F)F)sc2N)c1[C@@H]1CC[C@@H](N)[C@@H](F)CO1` [Example 267, 5-amino-N-(5-((2S,5R,6R)-5-amino-6-fluorooxepan-2-yl)-1-methyl-1H-pyrazol-4-yl)-2-(3-fluoro-2-(trifluoromethyl)phenyl)thiazole-4-carboxamide]: the Ki is 0.098 nM. Next, `COC(c1cc(F)c(-c2nc(C(=O)Nc3cnn(C)c3[C@@H]3CC[C@@H](N)[C@H](F)CO3)cs2)c(F)c1)C1CC1` (stereo partly drawn) [Example 276, N-(5-((2S,5R,6S)-5-amino-6-fluorooxepan-2-yl)-1-methyl-1H-pyrazol-4-yl)-2-(4-(cyclopropyl(methoxy)methyl)-2,6-difluorophenyl)thiazole-4-carboxamide]: 0.084 nM; `Cn1ncc(NC(=O)c2nc(-c3cc(F)cc(F)c3F)sc2N)c1[C@@H]1CC[C@@H](N)[C@@H](F)CO1` [Example 261, 5-amino-N-(5-((2S,5R,6R)-5-amino-6-fluorooxepan-2-yl)-1-methyl-1H-pyrazol-4-yl)-2-(2,3,5-trifluorophenyl)thiazole-4-carboxamide]: 0.037 nM. With `Cn1ncc(NC(=O)c2ccc(F)c(-c3c(F)cc(C(O)(CO)CO)cc3F)n2)c1[C@@H]1CC[C@@H](N)[C@@H](F)CO1` [Example 212, N-(5-((2S,5R,6R)-5-amino-6-fluorooxepan-2-yl)-1-methyl-1H-pyrazol-4-yl)-6-(2,6-difluoro-4-(1,2,3-trihydroxypropan-2-yl)phenyl)-5-fluoropicolinamide], the Ki was found to be 0.162 nM. As for `COc1cc(F)c(-c2nc(C(=O)Nc3cnn(C)c3[C@@H]3CC[C@@H](N)[C@@H](F)CO3)ccc2F)c(F)c1` [Example 187, N-(5-((2S,5R,6R)-5-Amino-6-fluorooxepan-2-yl)-1-methyl-1H-pyrazol-4-yl)-6-(2,6-difluoro-4-methoxyphenyl)-5-fluoropicolinamide], the Ki is 0.027 nM. Turning to `Cn1ncc(NC(=O)c2ccc(F)c(-c3cccc(F)c3Cl)n2)c1[C@@H]1CC[C@@H](N)[C@H](F)CO1` [Example 227, N-(5-((2S,5R,6S)-5-amino-6-fluorooxepan-2-yl)-1-methyl-1H-pyrazol-4-yl)-6-(2-chloro-3-fluorophenyl)-5-fluoropicolinamide], the inhibitory constant (Ki) turned out to be 0.57 nM.

With `Cn1ncc(NC(=O)c2csc(-c3ncccc3F)n2)c1[C@@H]1CC[C@@H](N)[C@H](F)CO1` [Example 237, N-(5-((2S,5R,6S)-5-amino-6-fluorooxepan-2-yl)-1-methyl-1H-pyrazol-4-yl)-2-(3-fluoropyridin-2-yl)thiazole-4-carboxamide], the inhibitory constant (Ki) amounted to 0.107 nM. For `Cn1ncc(NC(=O)c2csc(-c3cccc(C(F)(F)F)n3)n2)c1[C@@H]1CC[C@@H](N)[C@H](F)CO1` [Example 314, N-(5-((2S,5R,6S)-5-amino-6-fluorooxepan-2-yl)-1-methyl-1H-pyrazol-4-yl)-2-(6-(trifluoromethyl)pyridin-2-yl)thiazole-4-carboxamide], the Ki turned out to be 2.08 nM.

Take `CO[C@H]1COC(c2c(NC(=O)c3nc(-c4c(F)cccc4F)sc3N)cnn2C)CC[C@@H]1N` (stereo partly drawn) [Example 128, 5-amino-N-(5-((5S,6R)-5-amino-6-methoxyoxepan-2-yl)-1-methyl-1H-pyrazol-4-yl)-2-(2,6-difluorophenyl)thiazole-4-carboxamide]: the Ki is 0.476 nM. For the molecule `Cn1ncc(NC(=O)c2nc(-c3c(F)cccc3F)sc2N)c1[C@@H]1CC[C@@H](N)C(F)(F)CO1` [Example 168, 5-Amino-N-[5-[(2S,5R)-5-amino-6,6-difluoro-oxepan-2-yl]-1-methyl-pyrazol-4-yl]-2-(2,6-difluorophenyl)thiazole-4-carboxamide], the inhibition constant Ki was 0.013 nM.

For the molecule `Cn1ncc(NC(=O)c2csc(-c3cc(Cl)ccc3F)n2)c1[C@@H]1CC[C@@H](N)[C@H](F)CO1` [Example 302, N-(5-((2S,5R,6S)-5-amino-6-fluorooxepan-2-yl)-1-methyl-1H-pyrazol-4-yl)-2-(5-chloro-2-fluorophenyl)thiazole-4-carboxamide], the Ki turned out to be 0.031 nM.

Turning to `Cn1ncc(NC(=O)c2nc(-c3c(F)cccc3F)sc2N)c1[C@@H]1C[C@H](O)CCO1` [Example 146, 5-amino-2-(2,6-difluorophenyl)-N-(5-((2S,4R)-4-hydroxytetrahydro-2H-pyran-2-yl)-1-methyl-1H-pyrazol-4-yl)thiazole-4-carboxamide], the Ki stood at 0.095 nM. On to `CCOc1ccc(F)c(-c2nc(C(=O)Nc3cnn(C)c3[C@@H]3CC[C@@H](N)[C@H](F)CO3)cs2)c1F` [Example 285, N-(5-((2S,5R,6S)-5-amino-6-fluorooxepan-2-yl)-1-methyl-1H-pyrazol-4-yl)-2-(3-ethoxy-2,6-difluorophenyl)thiazole-4-carboxamide], for which the Ki amounted to 0.001 nM.

As for `Cn1ncc(NC(=O)c2nc(-c3ccccc3F)sc2N)c1[C@@H]1CC[C@@H](N)[C@@H](F)CO1` [Example 186, 5-Amino-N-(5-((2S,5R,6R)-5-amino-6-fluorooxepan-2-yl)-1-methyl-1H-pyrazol-4-yl)-2-(2-fluorophenyl)thiazole-4-carboxamide], the Ki turned out to be 0.007 nM. For the molecule `CO[C@H]1CO[C@H](c2c(NC(=O)c3nc(-c4cc(F)cc(F)c4F)sc3N)cnn2C)CC[C@H]1N` [Example 263, 5-amino-N-(5-((2S,5R,6R)-5-amino-6-methoxyoxepan-2-yl)-1-methyl-1H-pyrazol-4-yl)-2-(2,3,5-trifluorophenyl)thiazole-4-carboxamide], the Ki was 0.127 nM.
